Legend:
[1] = system: Jurkat HIV-luciferase clones; test: Jurkat latency reversal assay; format: cell-based; conditions: Homo sapiens, 48 h; Jurkat latency reversal assay potency; read-out: Jurkat pEC50 (converted)
Description: Jurkat HIV-luciferase clones were maintained in RPMI medium 1640 (Gibco by Life Technologies) containing 10% (vol/vol) fetal bovine serum (SAFC/Sigma-Aldrich) and 25 units/mL penicillin, 25 units/mL streptomycin (Gibco by Life Technologies), and were split 1:4 every 3 to 4 days to maintain a cell density of ˜0.3 to 1 million cells/mL. The Jurkat clones were maintained with the addition of 500 nM EFV in the medium. Three Jurkat cell clones (C16, 115, and N6), each harboring one or two integrated HIV proviruses expressing the luciferase reporter gene, were added at equal amounts for a total of 5,000 cells per well to 384-well plates containing compound titrations. Dose-response testing was performed on compounds dissolved in dimethyl sulfoxide (DMSO; Fisher Scientific, Merelbeke, Belgium) dispensed in duplicate serial 3-fold, 14-point titrations using a D300e Digital Droplet Dispenser (Hewlett-Packard) to give final assay concentrations of 10 μM to […] in 50 μL of medium at 0.5% DMSO (vol/vol) final concentration. Cells and compound were incubated at 37° C. for 48 hours, unless otherwise indicated, followed by the addition of 20 μL of Steady-Glo® Luciferase (Promega). Luminescence resulting from the induction of the virally expressed luciferase was measured using an EnVision 2102 Multilabel Plate Reader (Perkin Elmer). Dose-response relationships were analyzed with GraphPad PRISM 6 using a four-parameter logistic regression model to calculate the concentration of compound that gives half-maximal response (EC50) and the maximal percent activation compared to the vehicle control.

[2] = molecular target: cIAP1-BIR3 (Homo sapiens (Human), UniProt Q13490); test: BIR binding assay (FRET competition), cIAP1 BIR3; conditions: for cIAP1 BIR3 vs BIR2 separation window: fold separation (FS) for cIAP1
Description: (§1) The BIR domain binding assays are FRET based competition assays that utilize His-tagged versions of each of the BIR2 and BIR3 domains from cIAP1, cIAP2, and XIAP (each domain assayed separately) each at a custom optimal concentration and a probe, 200 nM SMAC/DIABLO peptide […] labelled with AlexaFluor647 (part #crb 1110326h, Discovery Peptides). The assay is conducted in 50 mM HEPES, […], 1 mM CHAPS, 5% Glycerol, 1 mM DTT, in dI water with a final pH of 7.4 and final volume of 20 uL. Final protein domain concentrations are: 50 nM cIAP1-BIR3 (Part #APT-11-370 Reaction Biology), 100 nM XIAP-BIR3 (Part #APT-11-351 Reaction Biology), 200 nM XIAP-BIR2 (Part #APT-11-470 Reaction Biology), 325 nM cIAP2-BIR2 (Part #APT-11-489 Reaction Biology), 50 nM cIAP2-BIR3 (Part #APT-11-372 Reaction Biology), 325 nM cIAP1-BIR2 (Part #APT-11-487 Reaction Biology). Compounds were plated using a HP Tecan D300 printer in a final total volume of 202 nl and DMSO concentration normalized across the 15-point, 3-fold dilution series. Peptide and probe were prepared at 2× relative to the concentrations above in binding buffer, 10 uL added to the prepared compound plates, and incubated for 60 minutes. LANCE Eu-W1024 (part #AD0401 Perkin Elmer #, vendor) was prepared at 2× concentration in binding buffer for final concentration of 2 nM, 10 uL added to each well, and plates incubated for 30 minutes. Plates were read on an ENVISION multifunction plate reader with […] laser excitation to obtain the 615 nm/665 nm emission ratio as indicative of probe:protein proximity. Data was analyzed using GraphPad PRISM and curves fit using log(inhibitor) vs. response—Variable slope (four […] method to obtain IC50 and pIC50 values.

[3] = molecular target: cIAP1-BIR2 (Homo sapiens (Human), UniProt Q13490); test: BIR binding assay (FRET competition), cIAP1 BIR2
Description: as §1

[4] = molecular target: cIAP2-BIR3 (Homo sapiens (Human), UniProt Q13489); test: BIR binding assay (FRET competition), cIAP2 BIR3; conditions: for cIAP2 BIR3 vs BIR2 separation window: fold separation (FS) for cIAP2
Description: as §1

[5] = molecular target: XIAP-BIR3 (Homo sapiens (Human), UniProt P98170); test: BIR binding assay (FRET competition), XIAP BIR3
Description: as §1

[6] = molecular target: cIAP2-BIR2 (Homo sapiens (Human), UniProt Q13489); test: BIR binding assay (FRET competition), cIAP2 BIR2
Description: as §1

Chain of XIAP-BIR3 (P98170 241-356): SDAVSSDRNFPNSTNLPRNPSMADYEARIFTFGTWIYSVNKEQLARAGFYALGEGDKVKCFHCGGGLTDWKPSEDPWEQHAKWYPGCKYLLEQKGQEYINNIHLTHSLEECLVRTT
Chain of cIAP1-BIR2 (Q13490 173-257): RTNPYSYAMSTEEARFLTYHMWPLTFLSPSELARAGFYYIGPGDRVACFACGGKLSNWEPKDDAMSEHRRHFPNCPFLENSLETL
Chain of cIAP1-BIR3 (Q13490 253-363): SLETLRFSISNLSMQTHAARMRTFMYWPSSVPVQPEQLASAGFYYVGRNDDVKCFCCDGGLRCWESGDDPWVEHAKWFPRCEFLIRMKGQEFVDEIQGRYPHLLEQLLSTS
Chain of cIAP2-BIR2 (Q13489 158-242): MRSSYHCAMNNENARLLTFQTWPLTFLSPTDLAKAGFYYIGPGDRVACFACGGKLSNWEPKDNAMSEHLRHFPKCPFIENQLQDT
Chain of cIAP2-BIR3 (Q13489 238-349): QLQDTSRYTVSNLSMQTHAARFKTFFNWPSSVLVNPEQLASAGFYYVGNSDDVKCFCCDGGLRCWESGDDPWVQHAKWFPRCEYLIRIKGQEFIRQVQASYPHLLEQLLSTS

SMILES	EC50 [1] [nM]	IC50 [2] [nM]	cIAP1 BIR3 vs BIR2 separation window [2]	IC50 [3] [nM]	IC50 [4] [nM]	IC50 [5] [nM]	cIAP2 BIR3 vs BIR2 separation window [4]	IC50 [6] [nM]	cIAP1 BIR3 (pIC50) ([2]; FRET competition binding)	cIAP2 BIR3 (pIC50) ([4]; FRET competition binding)	XIAP BIR3 (pIC50) ([5]; FRET competition binding)
C[C@@H]1CN(CC(=O)N2CC(C)(C)c3ncc(Cc4ccc(C(F)(F)F)cc4)cc32)[C@@H](CN2CCO[C@H](COc3cccc(OC[C@@H]4CN(C[C@H]5CN[C@H](C)CN5CC(=O)N5CC(C)(C)c6ncc(Cc7ccc(C(F)(F)F)cc7)cc65)CCO4)c3)C2)CN1 [Compound 149]	63.1 to 316	31.6 to 501	+++ (10,000>FS>1,000)	10000 to 51300	31.6 to 501	31.6 to 501	–	–	–	–	–
COc1cc(F)ccc1Cc1cnc2c(c1)N(C(=O)CN1C[C@@H](C)NC[C@@H]1CN1CCO[C@H](COc3cccc(OC[C@@H]4CN(C[C@H]5CN[C@H](C)CN5CC(=O)N5CC(C)(C)c6ncc(Cc7ccc(F)cc7OC)cc65)CCO4)c3)C1)CC2(C)C [Compound 151]	63.1 to 316	15.8 to 31.6	+++ (10,000>FS>1,000)	3160 to 10000	7.94 to 15.8	31.6 to 501	+++ (10,000>FS>1,000)	3160 to 10000	–	–	–
COC(=O)c1cc(F)ccc1Cc1cnc2c(c1)N(C(=O)CN1C[C@@H](C)NC[C@@H]1CN1CCO[C@H](COc3cccc(OC[C@@H]4CN(C[C@H]5CN[C@H](C)CN5CC(=O)N5CC(C)(C)c6ncc(Cc7ccc(F)cc7C(=O)OC)cc65)CCO4)c3)C1)CC2(C)C [Compound 152]	63.1 to 316	7.94 to 15.8	+++ (10,000>FS>1,000)	3160 to 10000	7.94 to 15.8	31.6 to 501	+++ (10,000>FS>1,000)	3160 to 10000	–	–	–
C[C@@H]1CN(CC(=O)N2CC(C)(C)c3ncc(Cc4ccc(Br)cc4)cc32)[C@@H](CN2CCO[C@H](COc3cccc(OC[C@@H]4CN(C[C@H]5CN[C@H](C)CN5CC(=O)N5CC(C)(C)c6ncc(Cc7ccc(Br)cc7)cc65)CCO4)c3)C2)CN1 [Compound 153]	63.1 to 316	31.6 to 501	+++ (10,000>FS>1,000)	10000 to 51300	31.6 to 501	31.6 to 501	–	–	–	–	–
C[C@@H]1CN(CC(=O)N2CC(C)(C)c3[nH]c(=O)c(Cc4ccc(Cl)cc4)cc32)[C@@H](CN2CCO[C@H](C(=O)NCc3ccc(CNC(=O)[C@@H]4CN(C[C@H]5CN[C@H](C)CN5CC(=O)N5CC(C)(C)c6[nH]c(=O)c(Cc7ccc(Cl)cc7)cc65)CCO4)cc3)C2)CN1 [Compound 161, (2S,2′S)-N,N′-(1,4-phenylenebis(methylene)) bis(4-(((2R,5R)-1-(2-(6-(4-chlorobenzyl)-3,3-dimethyl-5-oxo-2,3,4,5-tetrahydro-1H-pyrrolo[3,2-b]pyridin-1-yl)-2-oxoethyl)-5-methylpiperazin-2-yl)methyl)morpholine-2-carboxamide)]	0.49 to 12.6	1.38 to 7.94	+++ (10,000>FS>1,000)	22.4 to 1000	1.38 to 7.94	7.94 to 15.8	++++ (FS>10,000)	10000 to 51300	–	–	–
C[C@@H]1CN(CC(=O)N2CC(C)(C)c3[nH]c(=O)c(Cc4ccc(Br)cc4)cc32)[C@@H](CN2CCO[C@H](C(=O)NCc3ccc(CNC(=O)[C@@H]4CN(C[C@H]5CN[C@H](C)CN5CC(=O)N5CC(C)(C)c6[nH]c(=O)c(Cc7ccc(Br)cc7)cc65)CCO4)cc3)C2)CN1 [Compound 162, (2S,2′S)-N,N′-(1,4-phenylenebis(methylene)) bis(4-(((2R,5R)-1-(2-(6-(4-bromobenzyl)-3,3-dimethyl-5-oxo-2,3,4,5-tetrahydro-1H-pyrrolo[3,2-b]pyridin-1-yl)-2-oxoethyl)-5-methylpiperazin-2-yl)methyl)morpholine-2-carboxamide)]	12.6 to 63.1	1.38 to 7.94	++ (1,000>FS>100)	22.4 to 1000	1.38 to 7.94	15.8 to 31.6	+++ (10,000>FS>1,000)	22.4 to 1000	–	–	–
Cc1cc(Cl)ccc1Cc1cc2c([nH]c1=O)C(C)(C)CN2C(=O)CN1C[C@@H](C)NC[C@@H]1CN1CCO[C@H](C(=O)NCc2ccc(CNC(=O)[C@@H]3CN(C[C@H]4CN[C@H](C)CN4CC(=O)N4CC(C)(C)c5[nH]c(=O)c(Cc6ccc(Cl)cc6C)cc54)CCO3)cc2)C1 [Compound 168, (2S,2′S)-N,N′-(1,4-phenylenebis(methylene)) bis(4-(((2R,5R)-1-(2-(6-(4-chloro-2-methylbenzyl)-3,3-dimethyl-5-oxo-2,3,4,5-tetrahydro-1H-pyrrolo[3,2-b]pyridin-1-yl)-2-oxoethyl)-5-methylpiperazin-2-yl)methyl)morpholine-2-carboxamide)]	0.49 to 12.6	15.8 to 31.6	–	–	7.94 to 15.8	31.6 to 501	++ (1,000>FS>100)	22.4 to 1000	–	–	–
C[C@@H]1CN(CC(=O)N2CC(C)(C)c3ncc(Cc4ccc(F)cc4)cc32)[C@@H](CN2CCN(S(=O)(=O)c3cccc(S(=O)(=O)N4CCN(C[C@H]5CN[C@H](C)CN5CC(=O)N5CC(C)(C)c6ncc(Cc7ccc(F)cc7)cc65)[C@H](C)C4)c3)C[C@H]2C)CN1 [Example 36, 2,2′-((3R,3′R,6R,6′R)-(((2R,2′R)-(1,3-phenylenedisulfonyl)bis(2-methylpiperazine-4,1-diyl))bis(methylene))bis(3-methylpiperazine-6,1-diyl))bis(1-(6-(4-fluorobenzyl)-3,3-dimethyl-2,3-dihydro-1H-pyrrolo[3,2-b]pyridin-1-yl)ethan-1-one)]	0.49 to 12.6	15.8 to 31.6	+++ (10,000>FS>1,000)	3160 to 10000	15.8 to 31.6	31.6 to 501	–	–	–	–	–
C[C@@H]1CN(CC(=O)N2CC(C)(C)c3[nH]c(=O)c(Cc4ccc(F)cc4)cc32)[C@@H](CN2CCC[C@@H](NC(=O)CCCCCCCCCCCCC(=O)N[C@@H]3CCCN(C[C@H]4CN[C@H](C)CN4CC(=O)N4CC(C)(C)c5[nH]c(=O)c(Cc6ccc(F)cc6)cc54)C3)C2)CN1 [Example 46, N1,N^14-bis((R)-1-(((2R,5R)-1-(2-(6-(4-fluorobenzyl)-3,3-dimethyl-5-oxo-2,3,4,5-tetrahydro-1H-pyrrolo[3,2-b]pyridin-1-yl)-2-oxoethyl)-5-methylpiperazin-2-yl)methyl)piperidin-3-yl)tetradecanediamide]	63.1 to 316	–	+++ (10,000>FS>1,000)	3160 to 10000	–	–	–	–	++ (7.80>pIC50>=7.50)	++ (7.80>pIC50>=7.50)	+ (7.50>pIC50>=6.30)
C[C@@H]1CN(CC(=O)N2CC(C)(C)c3[nH]c(=O)c(Cc4ccc(F)cc4)cc32)[C@@H](CN2CCC(CCOc3cccc(OCCC4CCN(C[C@H]5CN[C@H](C)CN5CC(=O)N5CC(C)(C)c6[nH]c(=O)c(Cc7ccc(F)cc7)cc65)CC4)c3)CC2)CN1 [Example 108, 1,1′-(2,2′-((3R,3′R,6R,6′R)-((((1,3-phenylenebis(oxy))bis(ethane-2,1-diyl))bis(piperidine-4,1-diyl))bis(methylene))bis(3-methylpiperazine-6,1-diyl))bis(acetyl))bis(6-(4-fluorobenzyl)-3,3-dimethyl-1,2,3,4-tetrahydro-5H-pyrrolo[3,2-b]pyridin-5-one)]	12.6 to 63.1	15.8 to 31.6	–	–	15.8 to 31.6	31.6 to 501	–	10000 to 51300	–	–	–
